Test results as given in patent publication US20240254103A9, “NOVEL PYRIMIDINE DERIVATIVE, AND COMPOSITION FOR PREVENTING OR TREATING NEURODEGENERATIVE DISEASES AND CANCER, COMPRISING SAME” (WHAN IN PHARMACEUTICAL CO., LTD., priority 2020, published 2024).

Tests used:
mutant LRRK2 (G2019S) = molecular target: T1, mutant LRRK2 (G2019S) (Homo sapiens, UniProt Q5S007, G2019S); test: Inhibitory activity against LRRK2: competition binding to ligand-affinity beads, DNA-tagged kinase quantitated by qPCR; details: 100 nM compound; % of ctrl; read-out: Remaining kinase activity(%) at 100 nM LRRK2(G2019Smutant)
T1 construct: DNA tag for qPCR detection (not a peptide; the protein part that carries it is not described); made in house; host or cells: HEK 293 cells (the same paragraph also describes T7 phage grown in E. coli BL21)
Summary of the method: (§1)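 Human LRRK2 H970–E2527, wild type or G2019S, was expressed as DNA-tagged kinase (T7 phage in E. coli or HEK293) and competed for 1 h against a biotinylated ligand on streptavidin beads. Bound kinase was eluted with 0.5 µM free ligand and quantified by qPCR. Values are % of control at 100 nM (both forms) and at 10 and 50 nM (wild type).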

wild-type LRRK2 = molecular target: T2, wild-type LRRK2 (Homo sapiens, UniProt Q5S007); test: as above; details: 100 nM compound; % of ctrl; read-out: Remaining kinase activity(%) at 100 nM LRRK2(WT)
T2 construct: DNA tag for qPCR detection (not a peptide; the protein part that carries it is not described); made in house; host or cells: HEK 293 cells (the same paragraph also describes T7 phage grown in E. coli BL21)
Summary of the method: as §1

T2 sequence (Q5S007 970-2527): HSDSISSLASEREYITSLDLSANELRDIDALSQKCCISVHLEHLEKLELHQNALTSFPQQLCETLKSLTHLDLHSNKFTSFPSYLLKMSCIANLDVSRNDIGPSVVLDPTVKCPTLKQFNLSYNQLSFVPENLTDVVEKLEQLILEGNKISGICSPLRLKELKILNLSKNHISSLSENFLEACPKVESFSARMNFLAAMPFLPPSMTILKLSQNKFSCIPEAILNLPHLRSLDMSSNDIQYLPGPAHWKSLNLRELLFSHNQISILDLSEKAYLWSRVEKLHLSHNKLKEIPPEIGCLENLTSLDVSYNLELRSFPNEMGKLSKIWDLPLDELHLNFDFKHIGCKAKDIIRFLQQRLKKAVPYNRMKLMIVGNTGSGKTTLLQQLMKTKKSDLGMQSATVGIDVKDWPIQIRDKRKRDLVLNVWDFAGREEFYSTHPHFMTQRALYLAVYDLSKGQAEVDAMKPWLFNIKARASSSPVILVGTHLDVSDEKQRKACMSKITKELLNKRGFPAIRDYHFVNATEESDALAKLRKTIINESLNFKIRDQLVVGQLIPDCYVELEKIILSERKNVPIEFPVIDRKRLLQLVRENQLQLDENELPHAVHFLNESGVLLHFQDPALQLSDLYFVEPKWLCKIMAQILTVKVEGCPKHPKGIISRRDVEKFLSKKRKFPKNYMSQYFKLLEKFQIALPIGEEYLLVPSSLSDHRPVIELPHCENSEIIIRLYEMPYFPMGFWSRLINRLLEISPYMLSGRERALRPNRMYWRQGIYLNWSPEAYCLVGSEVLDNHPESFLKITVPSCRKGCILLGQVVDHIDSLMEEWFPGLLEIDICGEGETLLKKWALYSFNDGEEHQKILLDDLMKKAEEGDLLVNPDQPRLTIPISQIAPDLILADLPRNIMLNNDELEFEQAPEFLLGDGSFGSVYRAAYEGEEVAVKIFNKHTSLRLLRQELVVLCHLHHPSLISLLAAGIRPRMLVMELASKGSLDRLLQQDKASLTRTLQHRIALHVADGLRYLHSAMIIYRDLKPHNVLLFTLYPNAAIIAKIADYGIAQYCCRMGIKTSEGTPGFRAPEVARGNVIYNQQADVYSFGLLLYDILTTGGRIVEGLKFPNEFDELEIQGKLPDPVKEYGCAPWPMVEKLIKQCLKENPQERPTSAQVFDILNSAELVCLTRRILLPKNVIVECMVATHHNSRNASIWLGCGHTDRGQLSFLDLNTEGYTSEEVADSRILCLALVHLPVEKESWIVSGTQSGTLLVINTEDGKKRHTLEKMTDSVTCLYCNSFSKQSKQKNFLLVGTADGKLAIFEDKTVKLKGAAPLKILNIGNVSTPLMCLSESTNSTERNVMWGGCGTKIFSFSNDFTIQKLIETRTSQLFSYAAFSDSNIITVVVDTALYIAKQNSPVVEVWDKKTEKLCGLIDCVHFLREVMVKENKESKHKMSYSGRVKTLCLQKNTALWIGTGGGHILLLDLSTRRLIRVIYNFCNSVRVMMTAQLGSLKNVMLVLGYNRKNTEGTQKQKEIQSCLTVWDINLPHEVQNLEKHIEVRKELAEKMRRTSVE
T1 sequence (Q5S007 970-2527 G2019S): as the sequence (Q5S007 970-2527) above, with G1050S counted along it

Row | remaining binding at 0.1 µM (mutant LRRK2 (G2019S)) | remaining binding at 0.1 µM (wild-type LRRK2) | Compound
1 | ≥ 50% | ≥ 50% | COc1cc(C(=O)N2CCOCC2)ccc1Nc1ncc(Cl)c(-c2ccccc2)n1 [Comparative Compound 1, (4-((5-chloro-4-phenylpyrimidin-2-yl)amino)-3-methoxyphenyl)(morpholino)methanone, reference compound]
2 | ≥ 50% | ≥ 50% | COc1cc(C(=O)N2CCOCC2)ccc1Nc1ncc(Cl)c(-c2cccnc2)n1 [Comparative Compound 2, (4-((5-chloro-4-(pyridin-3-yl)pyrimidin-2-yl)amino)-3-methoxyphenyl) (morpholino)methanone, reference compound]
3 | ≥ 50% | ≥ 50% | COc1cc(C(=O)N2CCOCC2)ccc1Nc1ncc(Cl)c(-c2cccc([N+](=O)[O-])c2)n1 [Comparative Compound 3, (4-((5-chloro-4-(3-nitrophenyl)pyrimidin-2-yl)amino) -3-methoxyphenyl)(morpholino)methanone, reference compound]
4 | < 30% | < 30% | COc1cc(C(=O)N2CCOCC2)ccc1Nc1ncc(Cl)c(-c2cnn(C)c2)n1 [Compound 1, (4-((5-chloro-4-(1-methyl-1H-pyrazol-4-yl)pyrimidin-2-yl)amino)-3-methoxyphenyl)(morpholino)methanone]
5 | < 10% | < 10% | COc1cc(C(=O)N2CCC(N3CCOCC3)CC2)ccc1Nc1ncc(Cl)c(-c2cnn(C)c2)n1 [Compound 2, (4-((5-chloro-4-(1-methyl-1H-pyrazol-4-yl)pyrimidin-2-yl)amino)-3-methoxyphenyl) (4-morpholinopiperidin-1-yl)methanone]
6 | < 30% | < 30% | COc1cc(C(=O)N2CCOCC2)ccc1Nc1ncc(Cl)c(-c2cnn(CCO)c2)n1 [Compound 4, (4-((5-chloro-4-(1-(2-hydroxyethyl)-1H-pyrazol-4-yl)pyrimidin-2-yl)amino)-3-methoxyphenyl)(morpholino)methanone]
7 | < 10% | < 10% | COc1cc(C(=O)N2CCOCC2)ccc1Nc1ncc(Cl)c(-c2cnn(CCC#N)c2)n1 [Compound 5, 3-(4-(5-chloro-2-((2-methoxy-4-(morpholine-4-carbonyl)phenyl)amino)pyrimidin-4-yl)-1H-pyrazol-1-yl)propanenitrile]
8 | < 30% | < 50% | COc1cc(C(=O)N2CCOCC2)ccc1Nc1ncc(Cl)c(-c2cnn(CC#N)c2)n1 [Compound 6, 2-(4-(5-chloro-2-((2-methoxy-4-(morpholine-4-carbonyl)phenyl)amino)pyrimidin-4-yl)-1H-pyrazol-1-yl)acetonitrile]
9 | < 10% | < 10% | COc1cc(C(=O)N2CCOCC2)ccc1Nc1ncc(Cl)c(-c2cnn(C(C)CC#N)c2)n1 (stereo not drawn) [Compound 7, 3-(4-(5-chloro-2-((2-methoxy-4-(morpholine-4-carbonyl)phenyl)amino)pyrimidin-4-yl)-1H-pyrazol-1-yl)butanenitrile]
10 | < 10% | < 30% | COc1cc(C(=O)N2CCOCC2)ccc1Nc1ncc(Cl)c(-c2cnn(S(C)(=O)=O)c2)n1 [Compound 10, (4-((5-chloro-4-(1-(methylsulfonyl)-1H-pyrazol-4-yl)pyrimidin-2-yl)amino)-3-methoxyphenyl)(morpholino)methanone]
11 | < 30% | < 50% | COc1cc(C(=O)N2CCOCC2)ccc1Nc1ncc(Cl)c(-c2cnn(C(F)F)c2)n1 [Compound 15, (4-((5-chloro-4-(1-(difluoromethyl)-1H-pyrazol-4-yl)pyrimidin-2-yl)amino)-3-methoxyphenyl)(morpholino)methanone]
12 | < 10% | < 30% | COCn1cc(-c2nc(Nc3ccc(C(=O)N4CCOCC4)cc3OC)ncc2Cl)cn1 [Compound 16, (4-((5-chloro-4-(1-(methoxymethyl)-1H-pyrazol-4-yl)pyrimidin-2-yl)amino)-3-methoxyphenyl)(morpholino)methanone]
13 | < 50% | < 30% | COc1ccc(Cn2cc(-c3nc(Nc4ccc(C(=O)N5CCOCC5)cc4OC)ncc3Cl)cn2)cc1 [Compound 17, (4-((5-chloro-4-(1-(4-methoxybenzyl)-1H-pyrazol-4-yl)pyrimidin-2-yl)amino)-3-methoxyphenyl)(morpholino)methanone]
14 | < 30% | < 30% | COc1cc(C(=O)N2CCOCC2)ccc1Nc1ncc(Cl)c(-c2cn[nH]c2)n1 [Compound 18, (4-((5-chloro-4-(1H-pyrazol-4-yl)pyrimidin-2-yl)amino)-3-methoxyphenyl)(morpholino)methanone]
15 | < 10% | < 10% | COc1cc(C(=O)N2CCC(N3CCN(C)CC3)CC2)ccc1Nc1ncc(Cl)c(-c2cnn(C)c2)n1 [Compound 19, (4-((5-chloro-4-(1-methyl-1H-pyrazol-4-yl)pyrimidin-2-yl)amino)-3-methoxyphenyl)(4-(4-methylpiperazin-1-yl)piperidin-1-yl)methanone]
16 | < 10% | < 10% | COc1cc(C(=O)N2CCOCC2)ccc1Nc1ncc(Cl)c(-c2cnn(C3CCOCC3)c2)n1 [Compound 20, (4-((5-chloro-4-(1-(tetrahydro-2H-pyran-4-yl)-1H-pyrazol-4-yl)pyrimidin-2-yl)amino)-3-methoxyphenyl)(morpholino)methanone]
17 | < 30% | < 30% | COCCN(C)C(=O)c1ccc(Nc2ncc(Cl)c(-c3cnn(C)c3)n2)c(OC)c1 [Compound 21, 4-((5-chloro-4-(1-methyl-1H-pyrazol-4-yl)pyrimidin-2-yl)amino)-3-methoxy-N-(2-methoxyethyl)-N-methylbenzamide]
18 | < 50% | < 30% | COc1cc(C(=O)N2CCCC2)ccc1Nc1ncc(Cl)c(-c2cnn(C)c2)n1 [Compound 22, (4-((5-chloro-4-(1-methyl-1H-pyrazol-4-yl)pyrimidin-2-yl)amino)-3-methoxyphenyl)(pyrrolidin-1-yl)methanone]
19 | < 50% | < 50% | CCN(CCOC)C(=O)c1ccc(Nc2ncc(Cl)c(-c3cnn(C)c3)n2)c(OC)c1 [Compound 23, 4-((5-chloro-4-(1-methyl-1H-pyrazol-4-yl)pyrimidin-2-yl)amino)-N-ethyl-3-methoxy-N-(2-methoxyethyl)benzamide]
20 | < 50% | < 30% | COc1cc(C(=O)NC(C)(C)CO)ccc1Nc1ncc(Cl)c(-c2cnn(C)c2)n1 [Compound 24, 4-((5-chloro-4-(1-methyl-1H-pyrazol-4-yl)pyrimidin-2-yl)amino)-N-(1-hydroxy-2-methylpropan-2-yl)-3-methoxybenzamide]
21 | < 50% | < 30% | COc1cc(C(=O)NC(C)(C)C)ccc1Nc1ncc(Cl)c(-c2cnn(C)c2)n1 [Compound 25, N-(tert-butyl)-4-((5-chloro-4-(1-methyl-1H-pyrazol-4-yl)pyrimidin-2-yl)amino)-3-methoxybenzamide]
